{"source": "ChEMBL document CHEMBL5465560", "about": "“Selectivity Literature for EUbOPEN Chemogenomic Library” (2024)", "key": {"[1]": {"target": "Receptor-interacting serine/threonine-protein kinase 2 (Homo sapiens, UniProt O43353)", "sequence (O43353 whole entry)": "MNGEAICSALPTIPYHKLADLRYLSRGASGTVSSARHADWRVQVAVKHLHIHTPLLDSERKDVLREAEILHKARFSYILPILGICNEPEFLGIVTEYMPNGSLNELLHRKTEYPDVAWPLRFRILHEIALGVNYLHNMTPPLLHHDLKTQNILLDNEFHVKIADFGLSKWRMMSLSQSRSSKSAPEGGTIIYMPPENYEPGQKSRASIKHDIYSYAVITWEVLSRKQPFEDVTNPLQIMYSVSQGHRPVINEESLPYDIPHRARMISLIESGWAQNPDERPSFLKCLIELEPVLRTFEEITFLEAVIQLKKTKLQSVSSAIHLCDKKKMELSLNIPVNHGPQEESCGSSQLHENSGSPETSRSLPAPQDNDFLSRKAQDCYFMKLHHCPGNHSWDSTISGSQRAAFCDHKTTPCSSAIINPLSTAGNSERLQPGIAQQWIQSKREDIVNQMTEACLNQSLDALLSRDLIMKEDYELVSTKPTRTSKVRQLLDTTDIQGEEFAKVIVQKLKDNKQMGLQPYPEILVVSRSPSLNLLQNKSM", "experiment": "Selectivity interaction (Upstate Kinase Profiler service (Millipore)) EUB0000056c RIPK2", "conditions": "at 1 µM"}, "[2]": {"system": "RAF proto-oncogene serine/threonine-protein kinase (Homo sapiens), P04049 [Y340D,Y341D]", "sequence (P04049 whole entry Y340D/Y341D)": "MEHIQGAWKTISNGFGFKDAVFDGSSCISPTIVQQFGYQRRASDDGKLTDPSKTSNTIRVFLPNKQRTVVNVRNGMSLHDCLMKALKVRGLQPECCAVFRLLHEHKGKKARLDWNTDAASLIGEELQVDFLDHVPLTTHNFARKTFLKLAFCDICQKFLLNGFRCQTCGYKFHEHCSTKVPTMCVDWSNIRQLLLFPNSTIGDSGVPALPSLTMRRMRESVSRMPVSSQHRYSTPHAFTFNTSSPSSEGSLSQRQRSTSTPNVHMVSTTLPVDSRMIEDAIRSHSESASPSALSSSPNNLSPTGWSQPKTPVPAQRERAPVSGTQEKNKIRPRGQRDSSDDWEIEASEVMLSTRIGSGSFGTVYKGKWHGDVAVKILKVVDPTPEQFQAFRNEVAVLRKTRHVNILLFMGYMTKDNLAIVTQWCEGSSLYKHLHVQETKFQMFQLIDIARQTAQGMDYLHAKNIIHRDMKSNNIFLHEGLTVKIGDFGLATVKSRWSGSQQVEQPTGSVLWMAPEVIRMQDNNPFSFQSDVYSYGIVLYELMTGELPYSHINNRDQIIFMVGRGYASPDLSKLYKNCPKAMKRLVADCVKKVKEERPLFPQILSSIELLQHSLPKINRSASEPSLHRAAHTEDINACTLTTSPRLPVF", "experiment": "Selectivity interaction (ProQinase) EUB0000171b RAF1"}, "[3]": {"target": "T1, Serine/threonine-protein kinase ULK2 (Homo sapiens) (UniProt Q8IYT8)", "T1 sequence (whole entry)": "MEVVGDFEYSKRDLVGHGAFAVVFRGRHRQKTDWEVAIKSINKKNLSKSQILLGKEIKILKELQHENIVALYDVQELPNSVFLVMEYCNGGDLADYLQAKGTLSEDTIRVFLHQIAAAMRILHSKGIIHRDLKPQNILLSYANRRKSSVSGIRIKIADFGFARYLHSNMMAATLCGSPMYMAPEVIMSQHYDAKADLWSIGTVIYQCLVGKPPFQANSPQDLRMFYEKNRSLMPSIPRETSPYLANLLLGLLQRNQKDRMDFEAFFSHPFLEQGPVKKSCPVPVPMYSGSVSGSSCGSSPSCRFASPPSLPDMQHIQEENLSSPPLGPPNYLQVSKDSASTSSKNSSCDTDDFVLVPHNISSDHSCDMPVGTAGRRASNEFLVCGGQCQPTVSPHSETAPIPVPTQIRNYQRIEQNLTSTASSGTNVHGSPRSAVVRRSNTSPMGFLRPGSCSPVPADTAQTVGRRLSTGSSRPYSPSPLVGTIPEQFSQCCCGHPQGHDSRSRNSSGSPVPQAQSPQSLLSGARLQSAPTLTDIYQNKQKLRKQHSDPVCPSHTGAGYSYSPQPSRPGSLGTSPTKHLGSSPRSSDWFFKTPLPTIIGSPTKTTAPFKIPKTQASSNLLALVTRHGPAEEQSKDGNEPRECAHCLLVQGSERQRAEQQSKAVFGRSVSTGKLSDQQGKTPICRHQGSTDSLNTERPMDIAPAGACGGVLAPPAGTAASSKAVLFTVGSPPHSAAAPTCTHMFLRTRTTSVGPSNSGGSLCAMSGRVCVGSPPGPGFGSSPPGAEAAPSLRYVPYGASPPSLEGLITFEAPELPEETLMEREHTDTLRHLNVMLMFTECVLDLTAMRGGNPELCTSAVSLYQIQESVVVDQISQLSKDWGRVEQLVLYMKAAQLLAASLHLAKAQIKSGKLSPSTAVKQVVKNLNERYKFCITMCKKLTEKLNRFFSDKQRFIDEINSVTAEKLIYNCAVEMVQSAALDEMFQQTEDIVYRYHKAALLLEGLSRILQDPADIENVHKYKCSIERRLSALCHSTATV", "experiment": "Selectivity interaction (KinomeScan (DiscoverX)) EUB0001079a ULK2", "conditions": "at 1 µM"}, "[4]": {"target": "Mast/stem cell growth factor receptor Kit (Homo sapiens, UniProt P10721)", "sequence (P10721 whole entry)": "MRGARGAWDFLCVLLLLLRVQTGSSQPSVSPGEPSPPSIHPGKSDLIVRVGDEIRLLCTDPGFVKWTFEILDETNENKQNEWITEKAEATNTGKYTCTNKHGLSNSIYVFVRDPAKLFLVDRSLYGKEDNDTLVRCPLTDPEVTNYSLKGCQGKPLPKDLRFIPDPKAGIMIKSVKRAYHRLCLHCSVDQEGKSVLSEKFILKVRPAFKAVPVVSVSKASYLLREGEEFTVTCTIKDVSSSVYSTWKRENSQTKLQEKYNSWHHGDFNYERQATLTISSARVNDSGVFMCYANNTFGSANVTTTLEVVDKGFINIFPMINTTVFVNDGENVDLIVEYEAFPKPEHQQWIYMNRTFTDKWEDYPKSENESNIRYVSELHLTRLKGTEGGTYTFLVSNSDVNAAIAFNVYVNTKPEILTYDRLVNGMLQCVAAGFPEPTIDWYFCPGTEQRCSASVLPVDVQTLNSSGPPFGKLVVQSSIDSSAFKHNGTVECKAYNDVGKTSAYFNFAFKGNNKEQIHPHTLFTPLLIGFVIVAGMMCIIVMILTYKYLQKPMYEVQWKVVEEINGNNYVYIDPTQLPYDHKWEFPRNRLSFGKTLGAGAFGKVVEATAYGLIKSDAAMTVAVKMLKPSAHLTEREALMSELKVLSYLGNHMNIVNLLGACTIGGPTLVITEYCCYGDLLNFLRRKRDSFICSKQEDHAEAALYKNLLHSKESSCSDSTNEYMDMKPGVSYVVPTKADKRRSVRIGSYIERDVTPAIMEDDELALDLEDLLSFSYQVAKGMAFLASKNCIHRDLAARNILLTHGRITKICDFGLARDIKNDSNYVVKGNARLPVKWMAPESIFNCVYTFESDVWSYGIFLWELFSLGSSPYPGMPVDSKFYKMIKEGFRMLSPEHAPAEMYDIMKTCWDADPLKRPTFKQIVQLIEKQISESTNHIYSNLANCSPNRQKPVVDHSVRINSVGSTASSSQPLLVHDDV", "experiment": "Selectivity interaction (KinomeScan (DiscoverX)) EUB0001079a KIT", "conditions": "at 1 µM"}, "[5]": {"target": "Homeodomain-interacting protein kinase 1 (Homo sapiens, UniProt Q86Z02)", "sequence (Q86Z02 whole entry, looked up)": "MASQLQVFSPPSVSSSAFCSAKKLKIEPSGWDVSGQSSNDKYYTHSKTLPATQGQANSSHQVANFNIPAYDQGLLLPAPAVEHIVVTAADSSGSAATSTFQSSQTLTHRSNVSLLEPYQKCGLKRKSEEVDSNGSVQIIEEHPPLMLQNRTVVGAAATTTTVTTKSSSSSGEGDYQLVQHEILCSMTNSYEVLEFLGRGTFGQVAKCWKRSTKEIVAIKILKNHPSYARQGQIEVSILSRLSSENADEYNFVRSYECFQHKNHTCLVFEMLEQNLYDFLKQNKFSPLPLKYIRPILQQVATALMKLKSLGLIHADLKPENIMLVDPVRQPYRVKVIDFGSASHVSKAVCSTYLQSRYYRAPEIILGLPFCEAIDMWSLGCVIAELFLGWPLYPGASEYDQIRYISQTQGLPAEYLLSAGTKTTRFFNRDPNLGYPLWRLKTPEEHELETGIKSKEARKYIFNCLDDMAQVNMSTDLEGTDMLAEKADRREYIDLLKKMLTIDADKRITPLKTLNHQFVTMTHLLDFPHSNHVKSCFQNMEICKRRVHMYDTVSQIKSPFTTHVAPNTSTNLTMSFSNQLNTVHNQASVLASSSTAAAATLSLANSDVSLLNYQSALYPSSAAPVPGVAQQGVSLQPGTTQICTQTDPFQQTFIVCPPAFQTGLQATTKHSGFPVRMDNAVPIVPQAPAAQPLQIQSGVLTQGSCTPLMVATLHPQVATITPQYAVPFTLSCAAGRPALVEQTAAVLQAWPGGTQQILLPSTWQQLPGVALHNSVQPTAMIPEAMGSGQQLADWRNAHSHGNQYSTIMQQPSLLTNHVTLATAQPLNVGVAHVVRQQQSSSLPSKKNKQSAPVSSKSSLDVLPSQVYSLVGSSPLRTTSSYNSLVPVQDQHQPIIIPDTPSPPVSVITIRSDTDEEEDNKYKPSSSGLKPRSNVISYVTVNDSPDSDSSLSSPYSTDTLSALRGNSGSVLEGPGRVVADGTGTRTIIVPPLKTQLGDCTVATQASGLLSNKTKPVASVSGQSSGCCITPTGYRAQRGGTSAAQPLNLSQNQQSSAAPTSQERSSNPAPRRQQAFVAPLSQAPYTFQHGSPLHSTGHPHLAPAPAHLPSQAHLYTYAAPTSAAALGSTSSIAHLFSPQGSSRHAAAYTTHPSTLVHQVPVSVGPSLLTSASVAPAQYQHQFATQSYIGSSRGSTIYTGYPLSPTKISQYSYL", "experiment": "Selectivity interaction (KinomeScan (DiscoverX)) EUB0000607a HIPK1", "conditions": "at 10 µM"}, "[6]": {"target": "T2, Tyrosine-protein kinase JAK3 (Homo sapiens) (UniProt P52333)", "T2 sequence (whole entry)": "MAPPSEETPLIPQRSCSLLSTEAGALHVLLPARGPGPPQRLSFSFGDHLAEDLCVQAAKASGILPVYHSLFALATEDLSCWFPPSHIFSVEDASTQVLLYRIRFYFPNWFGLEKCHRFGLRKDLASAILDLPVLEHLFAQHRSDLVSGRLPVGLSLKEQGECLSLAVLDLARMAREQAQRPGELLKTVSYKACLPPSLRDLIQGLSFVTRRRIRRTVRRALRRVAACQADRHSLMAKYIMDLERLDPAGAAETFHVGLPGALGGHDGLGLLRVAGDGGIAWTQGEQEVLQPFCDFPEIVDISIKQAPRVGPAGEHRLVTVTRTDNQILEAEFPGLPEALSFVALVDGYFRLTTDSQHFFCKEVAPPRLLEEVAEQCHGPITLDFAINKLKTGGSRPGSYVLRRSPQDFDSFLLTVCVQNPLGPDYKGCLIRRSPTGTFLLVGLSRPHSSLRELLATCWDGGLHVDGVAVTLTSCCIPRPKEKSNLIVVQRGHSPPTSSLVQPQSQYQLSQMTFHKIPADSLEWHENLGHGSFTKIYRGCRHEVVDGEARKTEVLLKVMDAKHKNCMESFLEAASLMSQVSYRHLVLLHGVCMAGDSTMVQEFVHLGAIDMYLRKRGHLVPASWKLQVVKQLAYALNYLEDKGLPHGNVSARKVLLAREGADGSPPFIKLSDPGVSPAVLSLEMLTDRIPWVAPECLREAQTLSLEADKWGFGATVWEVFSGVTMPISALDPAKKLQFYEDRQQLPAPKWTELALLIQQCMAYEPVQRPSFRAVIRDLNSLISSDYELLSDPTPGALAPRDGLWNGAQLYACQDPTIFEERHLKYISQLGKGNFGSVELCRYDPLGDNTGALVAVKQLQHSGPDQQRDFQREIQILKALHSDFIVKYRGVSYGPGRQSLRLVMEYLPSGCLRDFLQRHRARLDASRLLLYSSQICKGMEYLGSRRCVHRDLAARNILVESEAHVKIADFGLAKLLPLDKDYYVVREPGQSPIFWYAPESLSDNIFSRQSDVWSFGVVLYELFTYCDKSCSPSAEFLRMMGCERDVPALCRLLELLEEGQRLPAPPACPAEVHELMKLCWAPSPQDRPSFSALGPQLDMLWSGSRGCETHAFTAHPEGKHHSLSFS", "experiment": "Selectivity interaction (KinomeScan (DiscoverX)) EUB0001049a JAK3", "conditions": "at 1 µM"}, "[7]": {"target": "Wee1-like protein kinase 2 (Homo sapiens) (UniProt P0C1S8)", "sequence (P0C1S8 whole entry, looked up)": "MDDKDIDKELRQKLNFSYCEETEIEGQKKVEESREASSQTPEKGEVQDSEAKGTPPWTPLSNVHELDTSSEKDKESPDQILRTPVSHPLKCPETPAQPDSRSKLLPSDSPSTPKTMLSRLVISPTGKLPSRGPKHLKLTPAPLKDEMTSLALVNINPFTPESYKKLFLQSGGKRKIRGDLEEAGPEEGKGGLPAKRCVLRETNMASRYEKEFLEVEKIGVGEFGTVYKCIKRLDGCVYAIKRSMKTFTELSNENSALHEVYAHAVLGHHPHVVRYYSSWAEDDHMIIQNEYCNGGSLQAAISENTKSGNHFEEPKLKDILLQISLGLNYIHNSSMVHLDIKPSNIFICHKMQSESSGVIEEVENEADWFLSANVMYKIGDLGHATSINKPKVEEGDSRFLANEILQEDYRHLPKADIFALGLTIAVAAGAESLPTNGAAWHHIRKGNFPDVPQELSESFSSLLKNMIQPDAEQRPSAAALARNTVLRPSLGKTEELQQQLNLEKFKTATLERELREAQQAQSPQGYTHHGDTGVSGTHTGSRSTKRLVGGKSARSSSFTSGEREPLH", "experiment": "Selectivity interaction (KinomeScan (DiscoverX)) EUB0000618a WEE2", "conditions": "at 10 µM"}}}
{"compound": "Cc1ccc(-c2ccc3c(ccc4sc5c(c43)NC[C@@H](C)NC5=O)n2)cn1", "values": [{"measurement": "% of inhibition", "setting": "[1]", "result": 74, "unit": "%"}]}
{"compound": "C=CC(=O)Nc1cccc(C(=O)Nc2ccc(Nc3cc(-c4[nH]c(SC)nc4C)ccn3)cc2)c1", "values": [{"measurement": "% of control", "setting": "[2]; at 1 µM", "result": 96, "unit": "%"}, {"measurement": "% of control", "setting": "[2]; at 5 µM", "result": 92, "unit": "%"}]}
{"compound": "Nc1cnc(N2CCc3cc(S(=O)(=O)Nc4c(F)cc(Cl)cc4F)cc(N4CCCC4=O)c32)nc1", "note": "[TP-020n]", "values": [{"measurement": "% of control", "setting": "[3]", "result": 100, "unit": "%"}, {"measurement": "% of control", "setting": "[4]", "result": 100, "unit": "%"}]}
{"compound": "CNC(=O)Nc1ccc(-c2nc(N3CC4CCC(C3)O4)c3cnn(C4CCC5(CC4)OCCO5)c3n2)cc1", "values": [{"measurement": "% of control", "setting": "[5]", "result": 100, "unit": "%"}]}
{"compound": "COc1cc(Nc2nc(C)cc(-c3cnn4nc(OC)ccc34)n2)cc(C(F)(F)F)c1", "values": [{"measurement": "% of control", "setting": "[6]", "result": 93, "unit": "%"}]}
{"compound": "O[C@H]1CC[C@H](Nc2ncc3nc(Nc4c(F)cc(F)cc4F)n([C@H]4CCOC4)c3n2)CC1", "values": [{"measurement": "% of control", "setting": "[7]", "result": 98, "unit": "%"}]}
